{"source": "patent US20200268711A1", "about": "“Use Of Carbamate Compound For Reducing Or Treating Developmental Disorders Including Fragile X Syndrome, Angelman Syndrome Or Rett Syndrome” (SK BIOPHARMACEUTICALS CO., LTD., priority 2017, published 2020)", "format_in_all_cases": "in vivo", "key": {"[1]": {"system": "Fmr1 gene-deficient mouse", "assay": "Audiogenic seizure test in Fmr1 gene-deficient mouse model", "settings": "for Percent seized / Percent survival / Time to seizure occurrence / Time to respiratory arrest: 30 minutes before the test; for Time to seizure occurrence: 135 dB sound, 300 seconds if seizure does not occur; for Time to respiratory arrest: 300 seconds if mouse survives without respiratory arrest; for Median seizure score (seizure intensity level): compared to the vehicle administration group, score 0-5", "method": "(§1) Male FVB.129P2-Pde6b^+ Tyr^c-ch Fmr1^tm1Cgr/J gene-deficient mice were purchased from Jackson Laboratories, and audiogenic seizure experiments were performed at 3 weeks of age. After purchase, the experimental animals were maintained under a controlled lighting environment (12 hours lighting/12 hours non-lighting) and maintained at a temperature of 20-23° C. and about 50% relative humidity. Food and water were provided ad libitum. Mice were randomly divided into groups. The test was carried out under lighting.\nMPEP (2-methyl-6-(phenylethynyl)pyridine) HCl was used as a positive control, dissolved in sterile injectable saline, and administered intraperitoneally at a dose of 30 mg/kg. MPEP was prepared at a volume of 10 ml/kg and administered 30 minutes before the test.\nTest Compound was dissolved in 30% PEG 300, and two doses of 10 mg/kg and 20 mg/kg were used, Test Compound was prepared at a volume of 10 ml/kg and administered intraperitoneally 30 minutes before the test. As a negative control, a vehicle (30% PEG 300) was administered.\nVehicle, MPEP or Test Compound was administered to mice of 21 days of age 30 minutes before the test. Mice were placed in a Plexiglas chamber for 15 seconds and exposed to 135 decibels (dB) of sound. During the test for 5 minutes, the mice were scored as following criteria based on the reaction of the mouse, the time required until the reaction and the intensity of the seizure.\n1: Wild running and jumping\nThe following endpoints were measured and observed, and in the case of animals that had no reaction, the time to reaction was set to 300 seconds for convenience in analysis.\n2. Time to respiratory arrest (300 seconds if mouse survives without respiratory arrest)\nData were analyzed by ANOVA, and if appropriate, Fisher PLSD post-hoc analysis was performed. The average seizure intensity was analyzed non-parametrically. The effect was defined as significant when p<0.05. Results are represented as mean values ±standard error."}, "[2]": {"system": "Fmr1 gene-deficient mouse", "assay": "Open field test (locomotor activity, rearing) in Fmr1 gene-deficient mouse model", "settings": "20 mg/kg i.p. once a day, day 4 of administration; 60 minutes; in comparison with the vehicle administration group", "method": "as §1, with “Laboratories.” for “Laboratories, and audiogenic seizure experiments were performed at 3 weeks of age.”, “The drugs were administered once a day for 6 days at 8 weeks of age. The” for “The”\n(§2) Test Compound was dissolved in 30% PEG 300, and two doses of 10 mg/kg and 20 mg/kg were used. Test Compound was prepared at a volume of 10 ml/kg and administered intraperitoneally 30 minutes before the test.\n1. Locomotor activity: Locomotor activity test was performed on day 4 of administration in the course of administering daily for 6 days in 8-week-old mice.\nA Plexiglas square chamber (27.3×27.3×20.3 cm) surrounded by infrared rays was used to measure the horizontal and vertical movements. Mice were acclimatized to the laboratory for at least 1 hour before the test and then placed in the center of the chamber to measure activity in the open field for 1 hour. […] The distance was measured by the breakage of the horizontal light beam by the movement of the mouse. […]\nThe data were analyzed by ANOVA, and if appropriate, Fisher PLSD post-hoc analysis was performed using Statview software. […]"}, "[3]": {"system": "Fmr1 gene-deficient mouse", "assay": "Fear conditioning test (contextual and cued) in Fmr1 gene-deficient mouse model", "settings": "day 6; for Freezing during contextual fear conditioning test: in comparison with the vehicle administration group", "method": "as §1, with “Laboratories.” for “Laboratories, and audiogenic seizure experiments were performed at 3 weeks of age.”, “The drugs were administered once a day for 6 days at 8 weeks of age. The” for “The”\nas §2\n2. Fear conditioning test: On day 5 and day 6 of administration, and 30 minutes after administration, training and drug efficacy tests were carried out, respectively. The test was performed using a fear conditioning system manufactured by Coulbourn Instruments (PA, USA).\nTraining was done 30 minutes after administration on day 5 of administration. The mice were placed in a conditioning chamber and accustomed to the environment for 120 seconds, and then exposed to 6 kHz, 75 dB sound stimulus (conditioned stimulus) for 20 seconds. 30 seconds after the end of the conditioned stimulation, 0.5 mA electrostimulation shock (unconditioned stimulus) was applied to the mouse paws. Mice were left in the conditioning chamber for an additional 60 seconds and then returned to the original cage.\nOn the morning of day 6, 30 minutes after administration mice were placed in the same chamber as the previous day, and then trained for 5 minutes without shock or other obstructions in order to perform a drug efficacy test for contextual memory. On day 6, after 4 hours of the contextual conditioning test, a drug efficacy test was performed on cued memory by stimulus signals. The mice were exposed to a new environment for 2 minutes (before the stimulation signal), and conditions and stimulation were applied three times in total for 20 seconds. Freezing behavior was defined as the complete loss of movement and was captured using a video system and FreezeView software (Coulbourn Instrument Penn., USA). The chamber was cleaned with 70% ethanol with each mouse change.\nThe data were analyzed by ANOVA, and if appropriate, Fisher PLSD post-hoc analysis was performed using Statview software. The effect was defined as significant when p<0.05. Results are represented as mean values ±standard error."}, "[4]": {"settings": "20 mg/kg i.p. once a day, compared with the vehicle administration group"}}}
{"smiles": "NC(=O)O[C@@H](Cn1ncnn1)c1ccccc1Cl", "note": "[Test Compound, Carbamic acid (R)-1-(2-chlorophenyl)-2-tetrazol-2-yl-ethyl ester]", "values": [{"measurement": "Percent seized", "setting": "[1]; 10 mg/kg i.p.", "result": "No seizures occurred"}, {"measurement": "Percent survival", "setting": "[1]; 10 mg/kg i.p.", "result": 100, "unit": "%"}, {"measurement": "Time to seizure occurrence", "setting": "[1]; 10 mg/kg i.p.", "result": 300, "unit": "s"}, {"measurement": "Time to respiratory arrest", "setting": "[1]; 10 mg/kg i.p.", "result": 300, "unit": "s"}, {"measurement": "Median seizure score (seizure intensity level)", "setting": "[1]; 10 mg/kg i.p.", "result": "significantly reduced"}, {"measurement": "Percent seized", "setting": "[1]; 20 mg/kg i.p.", "result": "No seizures occurred"}, {"measurement": "Percent survival", "setting": "[1]; 20 mg/kg i.p.", "result": 100, "unit": "%"}, {"measurement": "Time to seizure occurrence", "setting": "[1]; 20 mg/kg i.p.", "result": 300, "unit": "s"}, {"measurement": "Time to respiratory arrest", "setting": "[1]; 20 mg/kg i.p.", "result": 300, "unit": "s"}, {"measurement": "Median seizure score (seizure intensity level)", "setting": "[1]; 20 mg/kg i.p.", "result": "significantly reduced"}, {"measurement": "Locomotor activity (total distance traveled)", "setting": "[2]", "result": "significantly decreased"}, {"measurement": "Rearing activity", "setting": "[2]", "result": "decreased"}, {"measurement": "Rate of freezing in cue test, while the stimulus signal was given", "setting": "[3]; 10 mg/kg i.p. once a day, compared with the vehicle administration group", "result": "significantly increased"}, {"measurement": "Freezing during contextual fear conditioning test", "setting": "[3]; 10 mg/kg i.p. once a day", "result": "significantly increased"}, {"measurement": "Freezing in cue test, after the stimulus signal", "setting": "[3]; [4]", "result": "significant increase"}, {"measurement": "Rate of freezing in cue test, while the stimulus signal was given", "setting": "[3]; [4]", "result": "significantly increased"}, {"measurement": "Freezing during contextual fear conditioning test", "setting": "[3]; 20 mg/kg i.p. once a day", "result": "significantly increased"}]}
{"smiles": "Cc1cccc(C#Cc2ccccc2)n1", "note": "[MPEP, 2-methyl-6-(phenylethynyl)pyridine, reference compound]", "values": [{"measurement": "Percent seized", "setting": "[1]; 30 mg/kg i.p.", "result": "No seizures occurred"}, {"measurement": "Percent survival", "setting": "[1]; 30 mg/kg i.p.", "result": 100, "unit": "%"}, {"measurement": "Time to seizure occurrence", "setting": "[1]; 30 mg/kg i.p.", "result": 300, "unit": "s"}, {"measurement": "Time to respiratory arrest", "setting": "[1]; 30 mg/kg i.p.", "result": 300, "unit": "s"}, {"measurement": "Median seizure score (seizure intensity level)", "setting": "[1]; 30 mg/kg i.p.", "result": "significantly reduced"}]}
